Where two headings read alike, the source gives them in different places.
Test: Pharmacokinetics in dogs (plasma concentration by HPLC)
Assay type: in vivo, dog (beagle)
Conditions: for AUC(0-t) / Cmax / Tmax / half-life / AUC(0-inf) / concentration at 0.5 h / concentration at 1 h / concentration at 2 h / concentration at 4 h / concentration at 7 h / concentration at 12 h: 2 mg/kg/day PO; for AUC(0-inf): read-out: AUCO- (to infinite time)
Description: Since dogs are used in toxicology studies of antiasthma compounds, this species is chosen for pharmacokinetic evaluations. Use of the dog permits the pharmacokinetic comparison of 2 or more compounds in the same test animal, an evaluation which could not be conveniently performed in a smaller species. For each test compound, normal dogs are given a dose of 2.0 mg/kg/day for 5 consecutive days. There is a washout period of 1 month between the study of each of the test compounds in the same four dogs. Each test compound is administered as a solution of 5 mg/ml in either 0.05 or 0.1N HCl which is dispensed into a gelatin capsule immediately prior to dosage.
Heparinized blood samples are obtained from each animal on the first, third and fifth day of dosage at 0.5, 1.0, 2.0, 4.0, 7.0, 12.0 and 24.0 hours after the dose. The samples are centrifuged immediately to obtain plasma which is frozen until analyzed.
Analysis of plasma is performed using High Performance Liquid Chromatography (HPLC). The analytical procedure is essentially identical for each compound. The internal standard used for N-[3-[2-(1H-imidazol-1-yl)ethoxy]phenyl]-4-(2-thienyl)2-pyrimidinamine is 2-chloro-11-(4-methyl-1-piperazinyl)dibenz[b,f][1,4]oxazepine succinate, while for 2-methyl-N^4 -[4-(4-pyridinyl)-2-pyrimidinyl]-1,4-benzenediamine dihydrochloride and N-[4-[2-(diethylamino)ethoxy]phenyl]-4-(4-pyridinyl)-2-pyrimidnamine dihydrochloride the internal standard is 7-ethoxy-coumarin. In a typical procedure, a 0.4 ml volume of acetonitrile containing internal standard is added a 0.2 ml volume of serum. The sample is mixed by vortexing and centrifuged. The clear protein free supernatent fluid is decanted into a clean tube and evaporated to dryness. The dry residue is dissolved in 0.2 ml of HPLC mobile phase and 50 ul of this solution injected. Peaks corresponding to the test compound being measured and to the internal standard compound are quantitated by their absorption of ultraviolet light at 280 nm. Each set of analytical samples is accompanied by the analysis of a group of standard dog plasma samples prepared to contain amounts of the compound being measured which encompasses the concentration range of the samples.
Four normal beagle dogs weighing between 9.2 and 10.2 Kg are used in the study.

[1] = dog, plasma, po, 2 mg/kg/day, Dog 3, day 3
[2] = dog, plasma, po, 2 mg/kg/day, Dog 3, day 5
[3] = dog, plasma, po, 2 mg/kg/day, Dog 4, day 1
[4] = dog, plasma, po, 2 mg/kg/day, Dog 4, day 3
[5] = dog, plasma, po, 2 mg/kg/day, Dog 4, day 5
[6] = dog, plasma, po, 2 mg/kg/day, Mean, day 1
[7] = dog, plasma, po, 2 mg/kg/day, Mean, day 3
[8] = dog, plasma, po, 2 mg/kg/day, Mean, day 5

SMILES: c1cc(Nc2nccc(-c3cccs3)n2)cc(OCCn2ccnc2)c1 [N-[3-[2-(1H-imidazol-1-yl)ethoxy]phenyl]-4-(2-thienyl)-2-pyrimidinamine]
- AUC(0-t) [1]: 799 ng·h/mL
- Cmax [1]: 350 ng/mL
- Tmax [1]: 1 h
- half-life [1]: 1.62 h
- AUC(0-inf) [1]: 955 ng·h/mL
- concentration at 0.5 h (dog, plasma, po, 2 mg/kg/day, Dog 3, day 5, 0.5 h): < 30 ng/mL
- concentration at 1 h (dog, plasma, po, 2 mg/kg/day, Dog 3, day 5, 1 h): 272 ng/mL
- concentration at 2 h (dog, plasma, po, 2 mg/kg/day, Dog 3, day 5, 2 h): 233 ng/mL
- concentration at 4 h (dog, plasma, po, 2 mg/kg/day, Dog 3, day 5, 4 h): 114 ng/mL
- concentration at 7 h (dog, plasma, po, 2 mg/kg/day, Dog 3, day 5, 7 h): < 30 ng/mL
- concentration at 12 h (dog, plasma, po, 2 mg/kg/day, Dog 3, day 5, 12 h): < 30 ng/mL
- AUC(0-t) [2]: 682 ng·h/mL
- Cmax [2]: 272 ng/mL
- Tmax [2]: 1 h
- half-life [2]: 1.94 h
- AUC(0-inf) [2]: 978 ng·h/mL
- concentration at 0.5 h (dog, plasma, po, 2 mg/kg/day, Dog 4, day 1, 0.5 h): 173 ng/mL
- concentration at 1 h (dog, plasma, po, 2 mg/kg/day, Dog 4, day 1, 1 h): 364 ng/mL
- concentration at 2 h (dog, plasma, po, 2 mg/kg/day, Dog 4, day 1, 2 h): 325 ng/mL
- concentration at 4 h (dog, plasma, po, 2 mg/kg/day, Dog 4, day 1, 4 h): 172 ng/mL
- concentration at 7 h (dog, plasma, po, 2 mg/kg/day, Dog 4, day 1, 7 h): 40 ng/mL
- concentration at 12 h (dog, plasma, po, 2 mg/kg/day, Dog 4, day 1, 12 h): < 30 ng/mL
- AUC(0-t) [3]: 1340 ng·h/mL
- Cmax [3]: 364 ng/mL
- Tmax [3]: 1 h
- half-life [3]: 1.64 h
- AUC(0-inf) [3]: 1440 ng·h/mL
- concentration at 0.5 h (dog, plasma, po, 2 mg/kg/day, Dog 4, day 3, 0.5 h): 65 ng/mL
- concentration at 1 h (dog, plasma, po, 2 mg/kg/day, Dog 4, day 3, 1 h): 220 ng/mL
- concentration at 2 h (dog, plasma, po, 2 mg/kg/day, Dog 4, day 3, 2 h): 144 ng/mL
- concentration at 4 h (dog, plasma, po, 2 mg/kg/day, Dog 4, day 3, 4 h): 38 ng/mL
- concentration at 7 h (dog, plasma, po, 2 mg/kg/day, Dog 4, day 3, 7 h): < 30 ng/mL
- concentration at 12 h (dog, plasma, po, 2 mg/kg/day, Dog 4, day 3, 12 h): < 30 ng/mL
- AUC(0-t) [4]: 452 ng·h/mL
- Cmax [4]: 220 ng/mL
- Tmax [4]: 1 h
- half-life [4]: 1.61 h
- AUC(0-inf) [4]: 551 ng·h/mL
- concentration at 0.5 h (dog, plasma, po, 2 mg/kg/day, Dog 4, day 5, 0.5 h): < 30 ng/mL
- concentration at 1 h (dog, plasma, po, 2 mg/kg/day, Dog 4, day 5, 1 h): 191 ng/mL
- concentration at 2 h (dog, plasma, po, 2 mg/kg/day, Dog 4, day 5, 2 h): 197 ng/mL
- concentration at 4 h (dog, plasma, po, 2 mg/kg/day, Dog 4, day 5, 4 h): 71 ng/mL
- concentration at 7 h (dog, plasma, po, 2 mg/kg/day, Dog 4, day 5, 7 h): < 30 ng/mL
- concentration at 12 h (dog, plasma, po, 2 mg/kg/day, Dog 4, day 5, 12 h): < 30 ng/mL
- AUC(0-t) [5]: 510 ng·h/mL
- Cmax [5]: 197 ng/mL
- Tmax [5]: 2 h
- AUC(0-inf) [5]: 694 ng·h/mL
- concentration at 0.5 h (dog, plasma, po, 2 mg/kg/day, Mean of 4 dogs, day 1, 0.5 h): 235 ng/mL
- concentration at 1 h (dog, plasma, po, 2 mg/kg/day, Mean of 4 dogs, day 1, 1 h): 405 ng/mL
- concentration at 2 h (dog, plasma, po, 2 mg/kg/day, Mean of 4 dogs, day 1, 2 h): 318 ng/mL
- concentration at 4 h (dog, plasma, po, 2 mg/kg/day, Mean of 4 dogs, day 1, 4 h): 188 ng/mL
- concentration at 7 h (dog, plasma, po, 2 mg/kg/day, Mean of 4 dogs, day 1, 7 h): 52 ng/mL
- concentration at 12 h (dog, plasma, po, 2 mg/kg/day, Mean of 4 dogs, day 1, 12 h): < 30 ng/mL
- concentration at 0.5 h (dog, plasma, po, 2 mg/kg/day, Mean of 4 dogs, day 3, 0.5 h): 89 ng/mL
- concentration at 1 h (dog, plasma, po, 2 mg/kg/day, Mean of 4 dogs, day 3, 1 h): 225 ng/mL
- concentration at 2 h (dog, plasma, po, 2 mg/kg/day, Mean of 4 dogs, day 3, 2 h): 148 ng/mL
- concentration at 4 h (dog, plasma, po, 2 mg/kg/day, Mean of 4 dogs, day 3, 4 h): 33 ng/mL
- concentration at 7 h (dog, plasma, po, 2 mg/kg/day, Mean of 4 dogs, day 3, 7 h): < 30 ng/mL
- concentration at 12 h (dog, plasma, po, 2 mg/kg/day, Mean of 4 dogs, day 3, 12 h): < 30 ng/mL
- concentration at 0.5 h (dog, plasma, po, 2 mg/kg/day, Mean of 4 dogs, day 5, 0.5 h): 106 ng/mL
- concentration at 1 h (dog, plasma, po, 2 mg/kg/day, Mean of 4 dogs, day 5, 1 h): 276 ng/mL
- concentration at 2 h (dog, plasma, po, 2 mg/kg/day, Mean of 4 dogs, day 5, 2 h): 212 ng/mL
- concentration at 4 h (dog, plasma, po, 2 mg/kg/day, Mean of 4 dogs, day 5, 4 h): 82 ng/mL
- concentration at 7 h (dog, plasma, po, 2 mg/kg/day, Mean of 4 dogs, day 5, 7 h): < 30 ng/mL
- concentration at 12 h (dog, plasma, po, 2 mg/kg/day, Mean of 4 dogs, day 5, 12 h): < 30 ng/mL
- AUC(0-t) [6]: 1380 ng·h/mL
- Cmax [6]: 405 ng/mL
- Tmax [6]: 1 h
- half-life [6]: 2.27 h
- AUC(0-inf) [6]: 1620 ng·h/mL
- AUC(0-t) [7]: 444 ng·h/mL
- Cmax [7]: 225 ng/mL
- Tmax [7]: 1 h
- half-life [7]: 1.47 h
- AUC(0-inf) [7]: 595 ng·h/mL
- AUC(0-t) [8]: 659 ng·h/mL
- Cmax [8]: 277 ng/mL
- Tmax [8]: 1.25 h
- half-life [8]: 1.5 h
- AUC(0-inf) [8]: 871 ng·h/mL
- k el (dog, plasma, po, 2 mg/kg/day, derived from mean of half-life values, read-out: elimination constant (converted)): 0.000107 s⁻¹
- plasma half-life (in words) (dogs, compared with the two compounds of U.S. Pat. No. 4,788,195): increased plasma half-life and reproducibility
